Experimental data taken from patent US12084467B2, “Therapeutic compounds for HIV virus infection” (Gilead Sciences, Inc., priority 2021, dated 2024).
In brackets after ≈: the same amount, converted by molar mass.

Legend:
[1] = Kinetic solubility analysis (CLND: total chemiluminescent nitrogen determination); details: 1.0% DMSO, 24-hour incubation at ambient temperature, maximum theoretical concentration 100 μM; for pH 2 solubility: 0.1N HCl; for pH 7 solubility: 1×PBS buffer (pH 7.4)
[2] = Solubility in simulated intestinal fluids (FaSSIF / FeSSIF); details: 25 °C, thermodynamic from solid
[3] = fasted state simulated intestinal fluid (FaSSIF), fassif
[4] = fed state simulated intestinal fluid (FeSSIF), fessif

| Structure (SMILES) | pH 2 solubility [1] | pH 7 solubility [1] | solubility [2, 3] [mg/mL] | solubility [2, 4] [mg/mL] |
| --- | --- | --- | --- | --- |
| CC(C)(C#Cc1ccc(-c2ccc(Cl)c3c(N(C(=O)[C@H]4C[C@H](NC(=N)N)C4)S(C)(=O)=O)nn(CC(F)(F)F)c23)c([C@H](Cc2cc(F)cc(F)c2)NC(=O)Cn2nc(C(F)(F)F)c3c2C(F)(F)[C@@H]2C[C@H]32)n1)S(C)(=O)=O [Compound 9, trans-N-(4-chloro-7-(2-((S)-1-(2-((3bS,4aR)-5,5-difluoro-3-(trifluoromethyl)-3b,4,4a,5-tetrahydro-1H-cyclopropa[3,4]cyclopenta[1,2-c]pyrazol-1-yl)acetamido)-2-(3,5-difluorophenyl)ethyl)-6-(3-methyl-3-(methylsulfonyl)but-1-yn-1-yl)pyridin-3-yl)-1-(2,2,2-trifluoroethyl)-1H-indazol-3-yl)-3-guanidino-N-(methylsulfonyl)cyclobutane-1-carboxamide] | 9 μM | 2 μM | 0.017 (≈ 15.4 µM) | 0.083 (≈ 74.9 µM) |
| CC(C)(C#Cc1ccc(-c2ccc(Cl)c3c(N(C(=O)N4CCC[C@H]4CN(CCC(=O)O)C(=O)OCOP(=O)(O)O)S(C)(=O)=O)nn(CC(F)(F)F)c23)c([C@H](Cc2cc(F)cc(F)c2)NC(=O)Cn2nc(C(F)(F)F)c3c2C(F)(F)[C@@H]2C[C@H]32)n1)S(C)(=O)=O [Compound 34, 3-((((S)-1-((4-chloro-7-(2-((S)-1-(2-((3bS,4aR)-5,5-difluoro-3-(trifluoromethyl)-3b,4,4a,5-tetrahydro-1H-cyclopropa[3,4]cyclopenta[1,2-c]pyrazol-1-yl)acetamido)-2-(3,5-difluorophenyl)ethyl)-6-(3-methyl-3-(methylsulfonyl)but-1-yn-1-yl)pyridin-3-yl)-1-(2,2,2-trifluoroethyl)-1H-indazol-3-yl)(methylsulfonyl)carbamoyl)pyrrolidin-2-yl)methyl)(((phosphonooxy)methoxy)carbonyl)amino)propanoic acid] | 1 μM | 100 μM | 0.861 (≈ 652 µM) | 1.71 (≈ 1290 µM) |
| CC(C)(C#Cc1ccc(-c2ccc(Cl)c3c(N(C(=O)N4CCC[C@H]4CN)S(C)(=O)=O)nn(CC(F)(F)F)c23)c([C@H](Cc2cc(F)cc(F)c2)NC(=O)Cn2nc(C(F)(F)F)c3c2C(F)(F)[C@@H]2C[C@H]32)n1)S(C)(=O)=O [Compound 31, (S)-2-(aminomethyl)-N-(4-chloro-7-(2-((S)-1-(2-((3bS,4aR)-5,5-difluoro-3-(trifluoromethyl)-3b,4,4a,5-tetrahydro-1H-cyclopropa[3,4]cyclopenta[1,2-c]pyrazol-1-yl)acetamido)-2-(3,5-difluorophenyl)ethyl)-6-(3-methyl-3-(methylsulfonyl)but-1-yn-1-yl)pyridin-3-yl)-1-(2,2,2-trifluoroethyl)-1H-indazol-3-yl)-N-(methylsulfonyl)pyrrolidine-1-carboxamide] | 61 μM | 14 μM | – | – |
| CC(C)(C#Cc1ccc(-c2ccc(Cl)c3c(N(C(=O)C4(C(=O)O)CC4)S(C)(=O)=O)nn(CC(F)(F)F)c23)c([C@H](Cc2cc(F)cc(F)c2)NC(=O)Cn2nc(C(F)(F)F)c3c2C(F)(F)[C@@H]2C[C@H]32)n1)S(C)(=O)=O [Compound 18, 1-((4-chloro-7-(2-((S)-1-(2-((3bS,4aR)-5,5-difluoro-3-(trifluoromethyl)-3b,4,4a,5-tetrahydro-1H-cyclopropa[3,4]cyclopenta[1,2-c]pyrazol-1-yl)acetamido)-2-(3,5-difluorophenyl)ethyl)-6-(3-methyl-3-(methylsulfonyl)but-1-yn-1-yl)pyridin-3-yl)-1-(2,2,2-trifluoroethyl)-1H-indazol-3-yl)(methylsulfonyl)carbamoyl)cyclopropane-1-carboxylic acid] | 1 μM | 8 μM | 0.042 (≈ 38.9 µM) | 0.021 (≈ 19.4 µM) |
| CC(C)(C#Cc1ccc(-c2ccc(Cl)c3c(N(C(=O)N4CCC(N5CCCCC5)CC4)S(C)(=O)=O)nn(CC(F)(F)F)c23)c([C@H](Cc2cc(F)cc(F)c2)NC(=O)Cn2nc(C(F)(F)F)c3c2C(F)(F)[C@@H]2C[C@H]32)n1)S(C)(=O)=O [Compound 2, N-(4-chloro-7-(2-((S)-1-(2-((3bS,4aR)-5,5-difluoro-3-(trifluoromethyl)-3b,4,4a,5-tetrahydro-1H-cyclopropa[3,4]cyclopenta[1,2-c]pyrazol-1-yl)acetamido)-2-(3,5-difluorophenyl)ethyl)-6-(3-methyl-3-(methylsulfonyl)but-1-yn-1-yl)pyridin-3-yl)-1-(2,2,2-trifluoroethyl)-1H-indazol-3-yl)-N-(methylsulfonyl)-[1,4′-bipiperidine]-1′-carboxamide] | 17 μM | 1 μM | – | – |
| CN1CCN(C(=O)N(c2nn(CC(F)(F)F)c3c(-c4ccc(C#CC(C)(C)S(C)(=O)=O)nc4[C@H](Cc4cc(F)cc(F)c4)NC(=O)Cn4nc(C(F)(F)F)c5c4C(F)(F)[C@@H]4C[C@H]54)ccc(Cl)c23)S(C)(=O)=O)CC1 [Compound 1, N-(4-chloro-7-(2-((S)-1-(2-((3bS,4aR)-5,5-difluoro-3-(trifluoromethyl)-3b,4,4a,5-tetrahydro-1H-cyclopropa[3,4]cyclopenta[1,2-c]pyrazol-1-yl)acetamido)-2-(3,5-difluorophenyl)ethyl)-6-(3-methyl-3-(methylsulfonyl)but-1-yn-1-yl)pyridin-3-yl)-1-(2,2,2-trifluoroethyl)-1H-indazol-3-yl)-4-methyl-N-(methylsulfonyl)piperazine-1-carboxamide] | 39 μM | 1 μM | – | – |
| CC(C)(C#Cc1ccc(-c2ccc(Cl)c3c(N(C(=O)C4CNC4)S(C)(=O)=O)nn(CC(F)(F)F)c23)c([C@H](Cc2cc(F)cc(F)c2)NC(=O)Cn2nc(C(F)(F)F)c3c2C(F)(F)[C@@H]2C[C@H]32)n1)S(C)(=O)=O [Compound 5, N-(4-chloro-7-(2-((S)-1-(2-((3bS,4aR)-5,5-difluoro-3-(trifluoromethyl)-3b,4,4a,5-tetrahydro-1H-cyclopropa[3,4]cyclopenta[1,2-c]pyrazol-1-yl)acetamido)-2-(3,5-difluorophenyl)ethyl)-6-(3-methyl-3-(methylsulfonyl)but-1-yn-1-yl)pyridin-3-yl)-1-(2,2,2-trifluoroethyl)-1H-indazol-3-yl)-N-(methylsulfonyl)azetidine-3-carboxamide] | 34 μM | 1 μM | – | – |
| CC(C)(C#Cc1ccc(-c2ccc(Cl)c3c(N(C(=O)[C@H]4C[C@H](N)C4)S(C)(=O)=O)nn(CC(F)(F)F)c23)c([C@H](Cc2cc(F)cc(F)c2)NC(=O)Cn2nc(C(F)(F)F)c3c2C(F)(F)[C@@H]2C[C@H]32)n1)S(C)(=O)=O [Compound 7, (trans)-3-amino-N-(4-chloro-7-(2-((S)-1-(2-((3bS,4aR)-5,5-difluoro-3-(trifluoromethyl)-3b,4,4a,5-tetrahydro-1H-cyclopropa[3,4]cyclopenta[1,2-c]pyrazol-1-yl)acetamido)-2-(3,5-difluorophenyl)ethyl)-6-(3-methyl-3-(methylsulfonyl)but-1-yn-1-yl)pyridin-3-yl)-1-(2,2,2-trifluoroethyl)-1H-indazol-3-yl)-N-(methylsulfonyl)cyclobutane-1-carboxamide] | 70 μM | 1 μM | – | – |
| CC(C)(C#Cc1ccc(-c2ccc(Cl)c3c(N(C(=O)[C@H]4C[C@H](NC(=O)C(=O)O)C4)S(C)(=O)=O)nn(CC(F)(F)F)c23)c([C@H](Cc2cc(F)cc(F)c2)NC(=O)Cn2nc(C(F)(F)F)c3c2C(F)(F)[C@@H]2C[C@H]32)n1)S(C)(=O)=O [Compound 8] | <1/1 μM | <1/1 μM | – | – |
| CC(C)(C#Cc1ccc(-c2ccc(Cl)c3c(N(C(=O)[C@H]4C[C@H]4C(=O)O)S(C)(=O)=O)nn(CC(F)(F)F)c23)c([C@H](Cc2cc(F)cc(F)c2)NC(=O)Cn2nc(C(F)(F)F)c3c2C(F)(F)[C@@H]2C[C@H]32)n1)S(C)(=O)=O [Compound 17, (1R,2S)-2-((4-chloro-7-(2-((S)-1-(2-((3bS,4aR)-5,5-difluoro-3-(trifluoromethyl)-3b,4,4a,5-tetrahydro-1H-cyclopropa[3,4]cyclopenta[1,2-c]pyrazol-1-yl)acetamido)-2-(3,5-difluorophenyl)ethyl)-6-(3-methyl-3-(methylsulfonyl)but-1-yn-1-yl)pyridin-3-yl)-1-(2,2,2-trifluoroethyl)-1H-indazol-3-yl)(methylsulfonyl)carbamoyl)cyclopropane-1-carboxylic acid] | 3/3 μM | 3/3 μM | – | – |
| CC(C)(C#Cc1ccc(-c2ccc(Cl)c3c(N(C(=O)N4CCC(C(=O)O)CC4)S(C)(=O)=O)nn(CC(F)(F)F)c23)c([C@H](Cc2cc(F)cc(F)c2)NC(=O)Cn2nc(C(F)(F)F)c3c2C(F)(F)[C@@H]2C[C@H]32)n1)S(C)(=O)=O [Compound 25, 1-((4-chloro-7-(2-((S)-1-(2-((3bS,4aR)-5,5-difluoro-3-(trifluoromethyl)-3b,4,4a,5-tetrahydro-1H-cyclopropa[3,4]cyclopenta[1,2-c]pyrazol-1-yl)acetamido)-2-(3,5-difluorophenyl)ethyl)-6-(3-methyl-3-(methylsulfonyl)but-1-yn-1-yl)pyridin-3-yl)-1-(2,2,2-trifluoroethyl)-1H-indazol-3-yl)(methylsulfonyl)carbamoyl)piperidine-4-carboxylic acid] | 1 μM | 19 μM | – | – |
| CC(C)(C#Cc1ccc(-c2ccc(Cl)c3c(N(C(=O)C4CN(C(=N)N)C4)S(C)(=O)=O)nn(CC(F)(F)F)c23)c([C@H](Cc2cc(F)cc(F)c2)NC(=O)Cn2nc(C(F)(F)F)c3c2C(F)(F)[C@@H]2C[C@H]32)n1)S(C)(=O)=O [Compound 6, 1-carbamimidoyl-N-(4-chloro-7-(2-((S)-1-(2-((3bS,4aR)-5,5-difluoro-3-(trifluoromethyl)-3b,4,4a,5-tetrahydro-1H-cyclopropa[3,4]cyclopenta[1,2-c]pyrazol-1-yl)acetamido)-2-(3,5-difluorophenyl)ethyl)-6-(3-methyl-3-(methylsulfonyl)but-1-yn-1-yl)pyridin-3-yl)-1-(2,2,2-trifluoroethyl)-1H-indazol-3-yl)-N-(methylsulfonyl)azetidine-3-carboxamide] | 15 μM | 9 μM | – | – |
